Read-outs that look alike come from different tables or passages of the source.
Key:
[1] = system: acute liver injury (ALI) rats; experiment: Biochemical indexes of liver and renal functions in CCl4-intoxicated (ALI) rats; type: in vivo, rat
Experimental: Male Sprague-Dawley rats, weighing 180–220 g, were obtained from Beijing Vital River Experimental Animal Co., Ltd. The animals were quarantined for 1 week prior to study and maintained on a 12-h light/12-h dark cycle at 22 ± 1°C and at 50–55% relative humidity with free access to solid pellet diet and water ad libitum throughout the study. All rats were assigned randomly to three groups, including acute liver injury (ALI) rat, SC-treated ALI rat and the control, 5 in each group. The ALI and SC-treated ALI rats were intraperitoneal injected two doses of the mixture of CCl4 and olive oil (1:1, V/V) at 2 mL/kg in a 24 h time interval (Huang et al., [2001]), while the control group was given the same volume of olive oil. Then, the SC-treated ALI rat was orally dosed with SC alcoholic extract suspended in 0.5% sodium carboxymethyl cellulose (CMC) at 1.5 g/kg/day for 4 days after CCl4 injection. The dosages were set according to the amounts of the four active lignans used previously for pharmacological studies and their contents in the extract (Chiu et al., [2002], [2007]; Cheng et al., [2013]). All animal protocols were approved by the Animal Care and Welfare Committee of the Academy of Military Medical Sciences. All animal procedures complied with the Guide for the Care and Use of Laboratory Animals issued by Beijing Association on Laboratory Animal Care (BALAC).
Serum aspartate transaminase (AST), alanine transaminase (ALT), alkaline phosphatase (ALP), lactate dehydrogenase (LDH), total bilirubin, blood urea nitrogen (BUN), and creatinine (CRE) levels were determined with commercial kits (Nanjing Jiancheng Bioengineering Institute, China).

[2] = Transport across Caco-2 cell monolayer; type: in vitro ADME; details: human, 5 μM
Experimental: (§1) Caco-2 cell (passage 38) was used in the transport experiments. Cells were seeded on polycarbonate filters (12 mm diameter, pore size […]) at 1 × 10^5/cm^2. The cell monolayer was formed 21 days post seeding when the transepithelial electrical resistance (TEER) was above 1,000 Ω• cm^2. Three concentration levels (5, 10, and 50 μM) were set for the four schisandra lignans in the study. After preincubation for 1 h at 37°C, the solution of the four lignans was respectively added to the apical (0.4 mL) or basolateral (0.6 mL) chamber for absorptive (AP → BL) and secretive (BL → AP) permeability test. At the specified timepoints (0.5, 1, 1.5 and 2 h), 50 μL samples (n = 3) were withdrawn from receiver chamber, and meanwhile, 50 μL fresh buffer was added. The four lignans were determined by HPLC-MS method.
(§2) The efflux rate (ER) was calculated by the formula ER = Papp (BL → AP)/Papp(AP → BL).

[3] = Pharmacokinetics of four lignans in rats after oral SC alcoholic extract; type: in vivo, rat
Experimental: The pharmacokinetic profiles of four lignans were studied in ALI rat after multiple oral administrations of SC alcoholic extract at dose of 1.5 g/kg/day. After the ALI rat was established, SC alcoholic extract suspended in 0.5% sodium carboxymethyl cellulose was given to ALI rats and the control via oral gavage once a day for 4 consecutive days. Before the last dosing, rats were fasted for 12 h while water was taken freely. Blood samples were collected at 0, 0.25, 0.5, 1, 2, 3, 4, 6, 8, 12, 24, 36, and 48 h after the last dosing. A cannula was surgically placed into the jugular vein for collection of blood samples (about 0.1 mL) and blood loss compensation using sterile isotonic saline in the pharmacokinetic study. Plasma was separated by centrifugation and stored at −20°C until analysis. Plasma concentrations of the four lignans were quantified using HPLC-MS analysis developed according to the reported method (Wang et al., [2008]).
Data fitting and pharmacokinetic parameter calculations were carried out using the Winnolin software. Non-compartmental analysis was used to calculate the pharmacokinetic parameters. Parameters, such as AUC and MRT, were calculated using statistical moment method.

[4] = system: rat intestine (jejunum segment); experiment: In situ intestinal perfusion of four lignans; type: in vivo; details: for Perfusate (Percent of the initial dose) / Plasma (Percent of the initial dose) / Intestine (Percent of the initial dose) / Pblood / Plumen: 50 μM, n = 3; for Perfusate (Percent of the initial dose): intestinal perfusion 60 min; for Plasma (Percent of the initial dose) / Intestine (Percent of the initial dose): intestinal perfusion; for Plasma (Percent of the initial dose): mesenteric vein blood
Experimental: The surgical procedures of intestinal perfusion were conducted according to those published reports (Savina et al., [1981]). Hank's balanced salt solution (HBSS, pH 7.4) with four schisandra lignans (50 μM) at 37°C was infused into the jejunum segment at rate of 0.3 mL/min. Phenol Red (50 μM) was added to serve as a nonabsorbable marker for measuring water flux. Blood samples from mesenteric vein and perfusate were collected at 5-min interval. The plasma separated by centrifugation and perfusate was stored at −20°C until HPLC-MS analysis.
The permeability of four lignans across the rat intestine was calculated based on the disappearance of parent drug from the lumen (Plumen) as well as the appearance of the drug in blood (Pblood) using the following equations (Singhal et al., [1998]):
(1) Plumen = −Q/2πrlLnCout/Cin
(1) Pblood = ΔMB/Δt/2πrl{C}
where r is the radius of the perfused intestinal lumen; l is the length of the segment; Q is the flow rate of perfusate; Cin is the concentration of drug at the start of perfusion; and Cout is the steady-state concentration of drug exiting the lumen. ΔMB/Δt is the rate of drug appearance in mesenteric blood; and {C} is the logarithmic mean concentration of drug in the lumen.

rat liver = experiment: In situ hepatic perfusion of four lignans; type: in vivo; details: 10 μM, n = 3; for Total amount of analyte in bile / Total amount of analyte in liver: hepatic perfusion 60 min; for AUC: perfusate AUC(0−1h)
Experimental: In situ liver perfusion was performed similarly as the method described previously (Uraki et al., [2016]). […] The perfusate consisted of Krebs–Hensleit buffer (pH 7.4) containing sodium taurocholate (4.75 mg/L), 1% bovine serum albumin, and glucose (1.2 g/L) was oxygenated using carbogen, 95% O2/5% CO2. The perfusate at 37°C was infused into the portal vein at a flow rate of 30 mL/min in a recirculatory manner. After 10-min equilibration, four schisandra lignans were added to the reservoir (final concentration of 10 μM). Perfusate (0.5 mL) and bile samples were collected at 0, 10, 20, 30, 40, 50, and 60 min after the addition of lignans. The same volume of blank perfusion buffer was immediately added to the reservoir after collection of the perfusate samples. After hepatic perfusion, rat was sacrificed and liver was removed, blotted dry, and weighed.

Caco-2 cell monolayer = experiment: Transport across Caco-2 cell monolayer; type: in vitro ADME; details: for ER: ER = Papp (BL → AP)/Papp(AP → BL)
Experimental: as §1, §2

[5] = ALI rat intoxicated with CCl4 vs control rats
[6] = CCl4-intoxicated rats vs control
[7] = Caco-2, with PSC833 (concentration not stated), + PSC833
[8] = Caco-2, ER = Papp (BL → AP)/Papp(AP → BL)
[9] = CCl4-intoxicated rats, oral SC alcoholic extract 1.5 g/kg/day for 4 days, plasma, n = 5
[10] = Control (normal) rats, oral SC alcoholic extract 1.5 g/kg/day for 4 days, plasma, n = 5

With ClC(Cl)(Cl)Cl [CCl4, carbon tetrachloride] the “Decrease of content of liver microsomal CYP450 enzyme” value [1, 5] was 54%, the “Increase of BUN” value [1, 5] was 30% and the “Increase of liver index” value [1, 5] was 40%. For the same compound, the “Increase of serum ALT” value [1, 5] was 720%, the “Increase of serum AST” value [1, 5] was 30% and the BUN ([1]; CCl4-intoxicated rats) was 18.3 ± 1.2 mg/dL. The CRE ([1]; CCl4-intoxicated rats) was 0.8 ± 0.1 mg/dL, the “Serum ALT increase” value [1, 6] was 8.2 folds and the “Serum AST increase” value [1, 6] was 1.3 folds. For the same compound, the Liver index ([1]; CCl4-intoxicated rats, CCl4:olive oil (1:1) 2 mL/kg i.p., two doses) was 38 ± 5 g/kg, the “Liver P450” value ([1]; CCl4-intoxicated rats, liver microsomal CYP450 content) was 0.27 ± 0.12 nmol/mg and the ALP ([1]; CCl4-intoxicated rats, serum) was 8.15 ± 0.09 IU/L. For the same compound, the ALT ([1]; CCl4-intoxicated rats, serum) was 329 ± 49 IU/L, the AST ([1]; CCl4-intoxicated rats, serum) was 268 ± 49 IU/L and the LDH ([1]; CCl4-intoxicated rats, serum) was 605 ± 168 IU/L. For the same compound, the TB ([1]; CCl4-intoxicated rats, total bilirubin) was 0.09 ± 0.02 mg/dL.
With C[C@H]1O[C@@H](O[C@H]2[C@@H](O)C[C@H](O[C@H]3[C@@H](O)C[C@H](O[C@H]4CC[C@@]5(C)[C@H](CC[C@@H]6[C@@H]5C[C@@H](O)[C@]5(C)[C@@H](C7=CC(=O)OC7)CC[C@]65O)C4)O[C@@H]3C)O[C@@H]2C)C[C@H](O)[C@@H]1O [Digoxin, digoxin, reference compound] the Papp A→B at 2 h, 5 μM [2, 7] was 1.46 ± 0.24 ×10⁻⁶ cm/s, the Papp B→A at 2 h, 5 μM [2, 7] was 2.38 ± 0.58 ×10⁻⁶ cm/s and the efflux ratio at 2 h, 5 μM ([2]; Caco-2, with PSC833 (concentration not stated), + PSC833, read-out: ER) was 1.63. For the same compound, the Papp A→B at 2 h, 5 μM ([2]; Caco-2) was 3.29 ± 4.02 ×10⁻⁶ cm/s, the Papp B→A at 2 h, 5 μM ([2]; Caco-2) was 11.6 ± 0.82 ×10⁻⁶ cm/s and the efflux ratio at 2 h, 5 μM [2, 8] was 3.53.
CC(C)NCC(O)COc1cccc2ccccc12 (stereo not drawn) [Propranolol, propranolol, reference compound] showed a Papp A→B at 2 h, 5 μM ([2]; Caco-2) of 32.9 ± 6.03 ×10⁻⁶ cm/s, a Papp B→A at 2 h, 5 μM ([2]; Caco-2) of 24.6 ± 1.8 ×10⁻⁶ cm/s and an efflux ratio at 2 h, 5 μM [2, 8] of 0.75.
With schisantherin A the AUC(0−t) [3, 9] was 99600 ± 45600 ng·h/mL, the CLz/F [3, 9] was 234.05 ± 115.74 L/h/kg and the Cmax [3, 9] was 3190 ± 1160 ng/mL. For the same compound, the “MRT(0−t)” value [3, 9] was 19.84 ± 1.18 h, the Tmax [3, 9] was 9.60 ± 3.29 h and the t1/2 [3, 9] was 17.65 ± 3.32 h. For the same compound, the “Reduction of systemic clearance (CLz/F)” value ([3]; CCl4 intoxicated rats vs control rats) was about 89%, the AUC(0−t) [3, 10] was 11300 ± 3870 ng·h/mL and the Cmax [3, 10] was 569 ± 163 ng/mL. For the same compound, the “MRT(0−t)” value [3, 10] was 15.42 ± 0.29 h, the Tmax [3, 10] was 5.00 ± 1.41 h and the t1/2 [3, 10] was 12.39 ± 2.12 h. For the same compound, the “Perfusate (Percent of the initial dose)” value ([4]; CCl4-intoxicated rats) was 92.85 ± 1.33% of the initial dose, the “Plasma (Percent of the initial dose)” value ([4]; CCl4-intoxicated rats) was 0.82 ± 0.04% of the initial dose and the “Intestine (Percent of the initial dose)” value ([4]; CCl4-intoxicated rats) was 1.95 ± 0.36% of the initial dose. For the same compound, the Pblood ([4]; CCl4-intoxicated rats) was 0.060 ± 0.016 × 10^−4 cm/s, the Plumen ([4]; CCl4-intoxicated rats) was 2.047 ± 0.373 × 10^−4 cm/s and the “Perfusate (Percent of the initial dose)” value ([4]; Control rats) was 92.47 ± 1.06% of the initial dose. The “Plasma (Percent of the initial dose)” value ([4]; Control rats) was 0.80 ± 0.07% of the initial dose, the “Intestine (Percent of the initial dose)” value ([4]; Control rats) was 1.65 ± 0.37% of the initial dose and the Pblood ([4]; Control rats) was 0.047 ± 0.006 × 10^−4 cm/s. For the same compound, the Plumen ([4]; Control rats) was 2.303 ± 0.163 × 10^−4 cm/s, the “Increase of remaining amount in perfusate” value ([4]; intestinal autoperfusion (60 min), CCl4-treated rats vs control) was “not changed” and the “Total amount of analyte in bile” value (rat liver; CCl4-intoxicated rats) was 1.61 ± 0.34 µg. The “Total amount of analyte in liver” value (rat liver; CCl4-intoxicated rats) was 17.15 ± 1.84 µg, the AUC (rat liver; CCl4-intoxicated rats) was 4.79 ± 0.03 mg·h/L and the “Total amount of analyte in bile” value (rat liver; Control rats) was 1.48 ± 0.23 µg. The “Total amount of analyte in liver” value (rat liver; Control rats) was 12.36 ± 1.65 µg, the AUC (rat liver; Control rats) was 4.08 ± 0.14 mg·h/L and the “Papp(AP−BL)” value (Caco-2 cell monolayer; 5 μM) was 1.33 ± 0.12 × 10^−6 cm/s. The “Papp(BL−AP)” value (Caco-2 cell monolayer; 5 μM) was 1.52 ± 0.26 × 10^−6 cm/s, the ER (Caco-2 cell monolayer; 5 μM) was 1.14 and the “Papp(AP−BL)” value (Caco-2 cell monolayer; 10 μM) was 1.81 ± 0.35 × 10^−6 cm/s. The “Papp(BL−AP)” value (Caco-2 cell monolayer; 10 μM) was 2.28 ± 0.47 × 10^−6 cm/s, the ER (Caco-2 cell monolayer; 10 μM) was 1.26 and the “Papp(AP−BL)” value (Caco-2 cell monolayer; 50 μM) was 1.43 ± 0.35 × 10^−6 cm/s. For the same compound, the “Papp(BL−AP)” value (Caco-2 cell monolayer; 50 μM) was 1.28 ± 0.24 × 10^−6 cm/s and the ER (Caco-2 cell monolayer; 50 μM) was 0.89.

— publication PMC5861220, “The Cytochrome P450-Mediated Metabolism Alternation of Four Effective Lignans From Schisandra chinensis in Carbon Tetrachloride-Intoxicated Rats and Patients With Advanced Hepatocellular Carcinoma” (Frontiers in Pharmacology, 2018)
